Reference: patent publication US8759500B2, “Crystalline forms of a macrolide, and uses therefor” (Cempra Pharmaceuticals, Inc., priority 2010, dated 2014)
In brackets after ≈: the same amount, converted by molar mass. Like-named read-outs stand apart in the source and are kept apart here.

Legend:
[1] = female, Balb/c, mouse, in vivo, po
[2] = Stability of Form I and Form II under various storage conditions; format: physicochemical; conditions: during the entire study, all storage conditions
Description: In each case, the test material was first placed in Primary Packaging Material (LLDPE bag within a HMHDPE/LDPE/LDPE blend bag, and then heat sealed). The Primary Packaging Material was placed in Secondary Packaging Material (HDPE drum). All other impurities were less than 1% at each time point.

in vivo [3] = conditions: female, Balb/c, mouse, po; for AUC(0-t): AUC 0-24; for half-life: t½
Dynamic vapor sorption = format: physicochemical
Description: The new physical form, Form I of CEM-101 is a crystalline form which may be described by its X-ray powder diffraction pattern. Peaks at approximate positions of about °2θ=8.8, 10.5, 13.2 and 18.6 are representative of this crystalline form. A more detailed analysis of the peaks is described in Tables 1-2 below. […] Water determination by Karl Fisher titration in typical lots is 0.6 to 1.1%. […] Form I of CEM-101 melts at about 200° C. by DSC analysis.
The new physical form, Form II of CEM-101 is a crystalline form which may be described by its X-ray powder diffraction pattern. Peaks at approximate positions of about °2θ=5.6, 7.9, 9.3, 11.7, 12.9 and 16.7 are representative of this crystalline form. A more detailed analysis of the peaks is described in Tables 3-4 below. Based on a single crystal X-ray determination and dynamic vapor sorption analysis, Form II appears to be a non-hygroscopic anhydrous crystalline form that melts at about 225° C. as a single endothermic event by DSC analysis. It is appreciated herein that non-hygroscopic solids, such as Form II described herein, may be advantageous in the preparation of pharmaceutical compositions. Such advantages include improved handling and stability properties in manufacturing, improved lot to lot quality control.

physchem [4] = conditions: pH 6.03, saline or isotonic, thermodynamic from solid
[5] = Balb/c, mouse, in vivo, po, 20 mg/kg
Description: (§1) The doses were prepared as 2.0 mg/mL or 10.0 mg/mL in a vehicle of 0.5% (w/v) carboxymethyl cellulose in water and a dose volume of 10 mL/kg b.w. Blood samples were collected at various time points during the next 6 h post dose.

physchem [6] = conditions: 26 °C, thermodynamic from solid
in vivo [7] = conditions: Balb/c, mouse, po
Description: as §1

In the case of `CC[C@H]1OC(=O)[C@@](C)(F)C(=O)[C@H](C)[C@@H](O[C@@H]2O[C@H](C)C[C@H](N(C)C)[C@H]2O)[C@](C)(OC)C[C@@H](C)C(=O)[C@H](C)[C@H]2N(CCCCn3cc(-c4cccc(N)c4)nn3)C(=O)O[C@]12C` [Form I, solithromycin], the “AUC 0-24” value ([1]; 5 mg/kg) is reported as 3.30, the Cmax ([1]; 5 mg/kg) is reported as 1.43 µg/mL and the Tmax ([1]; 5 mg/kg) is reported as 0.6 h. For the same compound, the t½ ([1]; 5 mg/kg) was 1.32 h, the “AUC 0-24” value ([1]; 10 mg/kg) was 17.7 and the Cmax ([1]; 10 mg/kg) was 4.68 µg/mL. The Tmax ([1]; 10 mg/kg) was 2.4 h, the t½ ([1]; 10 mg/kg) was 3.6 h and the “AUC 0-24” value ([1]; 20 mg/kg) was 26.2. The Cmax ([1]; 20 mg/kg) was 6.64 µg/mL, the Tmax ([1]; 20 mg/kg) was 1.6 h and the t½ ([1]; 20 mg/kg) was 2.1 h. For the same compound, the “change in color of the test material” value [2] was “no observed change in color”, the AUC(0-t) (in vivo [3]; 5 mg/kg) was 3160 ng·h/mL and the Cmax (in vivo [3]; 5 mg/kg) was 1540 ng/mL. The Tmax (in vivo [3]; 5 mg/kg) was 0.5 h, the half-life (in vivo [3]; 5 mg/kg) was 79.2 min and the AUC(0-t) (in vivo [3]; 10 mg/kg) was 17200 ng·h/mL. It also gave a Cmax (in vivo [3]; 10 mg/kg) of 4090 ng/mL, a Tmax (in vivo [3]; 10 mg/kg) of 2 h and a half-life (in vivo [3]; 10 mg/kg) of 177 min. It also gave an AUC(0-t) (in vivo [3]; 20 mg/kg) of 26700 ng·h/mL, a Cmax (in vivo [3]; 20 mg/kg) of 5910 ng/mL and a Tmax (in vivo [3]; 20 mg/kg) of 2 h. For the same compound, the half-life (in vivo [3]; 20 mg/kg) was 115 min, the hygroscopicity (Dynamic vapor sorption) was “partially hygroscopic” and the solubility at 6 h (physchem [4]) was 1410 µg/mL (≈ 1670 µM). It also gave an AUCextrap ([5]; female) of 24%, an AUCextrap ([5]; male) of 24% and a solubility at 6 h (physchem [6]; pH 1.2, simulated gastric fluid) of 4810 µg/mL (≈ 5690 µM). For the same compound, the solubility at 6 h (physchem [6]; pH 4, aqueous buffer) was 4660 µg/mL (≈ 5510 µM), the solubility at 6 h (physchem [6]; pH 7.4, aqueous buffer) was 2220 µg/mL (≈ 2630 µM) and the solubility at 6 h (physchem [6]; pH 9.2, aqueous buffer) was 1750 µg/mL (≈ 2070 µM). The AUC(0-inf) (in vivo [7]; female, 20 mg/kg) was 70000 ng·h/mL, the AUC(0-t) (in vivo [7]; female, 20 mg/kg) was 53000 ng·h/mL and the Cmax (in vivo [7]; female, 20 mg/kg) was 13600 ng/mL. For the same compound, the Tmax (in vivo [7]; female, 20 mg/kg) was 0.5 h, the concentration at 0 h (in vivo [7]; female, 20 mg/kg) was 0 ng/mL and the concentration at 0.25 h (in vivo [7]; female, 20 mg/kg) was 8200 ± 2400 ng/mL. For the same compound, the concentration at 0.5 h (in vivo [7]; female, 20 mg/kg) was 13600 ± 2000 ng/mL, the concentration at 1 h (in vivo [7]; female, 20 mg/kg) was 12000 ± 1700 ng/mL and the concentration at 2 h (in vivo [7]; female, 20 mg/kg) was 11300 ± 1400 ng/mL. For the same compound, the concentration at 4 h (in vivo [7]; female, 20 mg/kg) was 7700 ± 700 ng/mL, the concentration at 6 h (in vivo [7]; female, 20 mg/kg) was 4200 ± 400 ng/mL and the AUC(0-t) (in vivo [7]; female, 100 mg/kg) was 91000 ng·h/mL. For the same compound, the Cmax (in vivo [7]; female, 100 mg/kg) was 19500 ng/mL, the Tmax (in vivo [7]; female, 100 mg/kg) was 6 h and the concentration at 0 h (in vivo [7]; female, 100 mg/kg) was 0 ng/mL. The concentration at 0.25 h (in vivo [7]; female, 100 mg/kg) was 11900 ± 1700 ng/mL, the concentration at 0.5 h (in vivo [7]; female, 100 mg/kg) was 11600 ± 1600 ng/mL and the concentration at 1 h (in vivo [7]; female, 100 mg/kg) was 14700 ± 2300 ng/mL. It also gave a concentration at 2 h (in vivo [7]; female, 100 mg/kg) of 14100 ± 2900 ng/mL, a concentration at 4 h (in vivo [7]; female, 100 mg/kg) of 16000 ± 2300 ng/mL and a concentration at 6 h (in vivo [7]; female, 100 mg/kg) of 19500 ± 2300 ng/mL. The AUC(0-inf) (in vivo [7]; male, 20 mg/kg) was 46000 ng·h/mL, the AUC(0-t) (in vivo [7]; male, 20 mg/kg) was 35000 ng·h/mL and the Cmax (in vivo [7]; male, 20 mg/kg) was 9500 ng/mL. The Tmax (in vivo [7]; male, 20 mg/kg) was 1 h, the concentration at 0 h (in vivo [7]; male, 20 mg/kg) was 0 ng/mL and the concentration at 0.25 h (in vivo [7]; male, 20 mg/kg) was 5300 ± 1800 ng/mL. For the same compound, the concentration at 0.5 h (in vivo [7]; male, 20 mg/kg) was 7700 ± 1600 ng/mL, the concentration at 1 h (in vivo [7]; male, 20 mg/kg) was 9500 ± 900 ng/mL and the concentration at 2 h (in vivo [7]; male, 20 mg/kg) was 6400 ± 800 ng/mL. For the same compound, the concentration at 4 h (in vivo [7]; male, 20 mg/kg) was 5900 ± 600 ng/mL, the concentration at 6 h (in vivo [7]; male, 20 mg/kg) was 2600 ± 800 ng/mL and the AUC(0-t) (in vivo [7]; male, 100 mg/kg) was 83500 ng·h/mL. For the same compound, the Cmax (in vivo [7]; male, 100 mg/kg) was 17400 ng/mL, the Tmax (in vivo [7]; male, 100 mg/kg) was 4 h and the concentration at 0 h (in vivo [7]; male, 100 mg/kg) was 0 ng/mL. The concentration at 0.25 h (in vivo [7]; male, 100 mg/kg) was 11300 ± 2500 ng/mL, the concentration at 0.5 h (in vivo [7]; male, 100 mg/kg) was 10700 ± 3000 ng/mL and the concentration at 1 h (in vivo [7]; male, 100 mg/kg) was 13100 ± 3200 ng/mL. For the same compound, the concentration at 2 h (in vivo [7]; male, 100 mg/kg) was 13400 ± 3100 ng/mL, the concentration at 4 h (in vivo [7]; male, 100 mg/kg) was 17400 ± 2900 ng/mL and the concentration at 6 h (in vivo [7]; male, 100 mg/kg) was 12000 ± 2000 ng/mL.
